Data on five molecules can be found in patent EP4603105A1, “PHARMACEUTICAL COMPOSITION CONTAINING CYCLIC COMPOUND HAVING SELECTIVE KRAS INHIBITORY EFFECT AGAINST HRAS AND NRAS” (CHUGAI SEIYAKU KABUSHIKI KAISHA, priority 2022, dated 2024).

In assay [1] the test system is human lung cancer strain NCI-H441. In kind it is cell-based. The procedure, abridged: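 Readout: […] after the ATP-based reagent. Compound: serial dilutions in dimethyl sulfoxide.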
In another assay the target is HRAS wild-type protein (Homo sapiens, UniProt P01112). Description: Binding to HRAS by surface plasmon resonance (SPR), KD and KD ratio to KRAS. The settings on record: ratio of KD for HRAS wild-type protein to KD for KRAS. The gist of the method: (§1)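 GDP-loaded biotinylated Avi-tag RAS proteins (E. coli-expressed) captured on a Biotin CAPture chip at ~100–300 RU; single-cycle kinetics at 30°C, 100 µL/min, 75 s injections of rising compound concentrations. HBS pH 7.4 running buffer with 1 mM DTT, 10 mM MgCl2, 10 µM GDP, 4% DMSO. KD from 1:1 binding fit.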
Chain of HRAS wild-type protein (P01112 whole entry): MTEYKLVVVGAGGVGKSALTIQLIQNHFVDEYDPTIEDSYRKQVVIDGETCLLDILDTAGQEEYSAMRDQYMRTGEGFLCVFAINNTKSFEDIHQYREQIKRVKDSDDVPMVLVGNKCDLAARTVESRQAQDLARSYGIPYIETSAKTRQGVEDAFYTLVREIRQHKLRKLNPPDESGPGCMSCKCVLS
For orientation: Surface plasmon resonance follows binding to a sensor surface in real time, without labels.

In assay [2] the target is GDP-bound NRAS wild-type protein (Homo sapiens, UniProt P01111). As to the kind of experiment: Binding to NRAS by surface plasmon resonance (SPR), KD and KD ratio to KRAS. The settings on record: ratio of KD for GDP-bound NRAS wild-type protein to KD for KRAS. The gist of the method: as §1
Chain of GDP-bound NRAS wild-type protein (P01111 whole entry): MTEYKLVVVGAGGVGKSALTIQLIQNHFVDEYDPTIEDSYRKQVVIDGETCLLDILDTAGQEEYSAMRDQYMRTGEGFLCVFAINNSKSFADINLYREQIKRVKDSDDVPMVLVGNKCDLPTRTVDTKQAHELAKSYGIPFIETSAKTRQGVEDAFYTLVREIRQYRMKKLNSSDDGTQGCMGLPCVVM

Where a SMILES comes first, the peptide text is derived from it. Bridges are numbered along the chain shown (N, C = ends). [ ]: non-standard residue; d: D form. The star is where a group is joined. hPhe(3-Cl-4-CF3) = N[C@@H](CCc1ccc(C(F)(F)F)c(Cl)c1)C(=O)O; NPrPhe(4-CF3) = CCCN[C@@H](Cc1ccc(C(F)(F)F)cc1)C(=O)O; NEtPhe(4-CF3) = CCN[C@@H](Cc1ccc(C(F)(F)F)cc1)C(=O)O; hPhe(3,4-Cl2) = N[C@@H](CCc1ccc(Cl)c(Cl)c1)C(=O)O; NMeGly(cPent) = CN[C@H](C(=O)O)C1CCCC1; NMeD = CN[C@@H](CC(=O)O)C(=O)O; NMeL = CN[C@@H](CC(C)C)C(=O)O; Ac6c = NC1(C(=O)O)CCCCC1; Morpholide = C1CN(*)CCO1; NMeA = CN[C@@H](C)C(=O)O; Ac5c = NC1(C(=O)O)CCCC1; Aze = O=C(O)[C@@H]1CCN1; Ac3c = NC1(C(=O)O)CC1; Aib = CC(C)(N)C(=O)O; Sar = CNCC(=O)O

By IC50 is commonly meant the concentration at which inhibition is half-maximal. A low value points to inhibition by little substance. On to `CC[C@H](C)[C@@H]1NC(=O)[C@H](CC(C)C)N(C)C(=O)C[C@@H](C(=O)N2CCOCC2)N(C)C(=O)[C@H](C2CCCC2)N(C)C(=O)C2(CCCCC2)NC(=O)[C@@H]2CCCN2C(=O)[C@H](CCc2ccc(C(F)(F)F)c(Cl)c2)NC(=O)CN(C)C(=O)[C@H](Cc2ccc(C(F)(F)F)cc2)N(CC)C(=O)[C@@H]2CCN2C(=O)[C@H](C)N(C)C1=O` [PP0222] ([NMeL]I[NMeA][Aze][NEtPhe(4-CF3)][Sar][hPhe(3-Cl-4-CF3)]P[Ac6c][NMeGly(cPent)][NMeD]-Morpholide; lactam N-11), for which half-maximal inhibition in assay [1] (IC50) required 17.1 nM. Further, at HRAS wild-type protein, the “HRAS /KRAS” value was “C (A compound having a KD ratio of 0.1 or more and less than 3 is denoted as C)”. Moreover, the “NRAS /KRAS” value in assay [2] was “C (A compound having a KD ratio of 0.1 or more and less than 3 is denoted as C)”.

For `CC[C@H](C)[C@@H]1NC(=O)[C@H](CC(C)C)N(C)C(=O)C[C@@H](C(=O)N2CCOCC2)N(C)C(=O)[C@H](C2CCCC2)N(C)C(=O)C2(CCCC2)NC(=O)[C@@H]2CCCN2C(=O)[C@H](CCc2ccc(Cl)c(Cl)c2)NC(=O)CN(C)C(=O)[C@H](Cc2ccc(C(F)(F)F)cc2)N(CC)C(=O)[C@@H]2CCN2C(=O)[C@H](C)N(C)C1=O` [PP0223] ([NMeL]I[NMeA][Aze][NEtPhe(4-CF3)][Sar][hPhe(3,4-Cl2)]P[Ac5c][NMeGly(cPent)][NMeD]-Morpholide; lactam N-11), in assay [1], the 50% inhibitory concentration (IC50) was 5 nM. The “HRAS /KRAS” value on HRAS wild-type protein was “C (A compound having a KD ratio of 0.1 or more and less than 3 is denoted as C)”. Further, in assay [2], the “NRAS /KRAS” value is “C (A compound having a KD ratio of 0.1 or more and less than 3 is denoted as C)”.

In assay [1], `CCCN1C(=O)[C@@H]2CCN2C(=O)[C@H](C)N(C)C(=O)[C@H]([C@@H](C)CC)NC(=O)[C@H](CC(C)C)N(C)C(=O)C[C@@H](C(=O)N2CCOCC2)N(C)C(=O)[C@H](C2CCCC2)N(C)C(=O)C2(CC2)NC(=O)[C@@H]2CCCN2C(=O)[C@H](CCc2ccc(C(F)(F)F)c(Cl)c2)NC(=O)CN(C)C(=O)[C@@H]1Cc1ccc(C(F)(F)F)cc1` [PP0224] ([NMeL]I[NMeA][Aze][NPrPhe(4-CF3)][Sar][hPhe(3-Cl-4-CF3)]P[Ac3c][NMeGly(cPent)][NMeD]-Morpholide; lactam N-11) returned a 50% inhibitory concentration (IC50) of 2 nM. Further, the “HRAS /KRAS” value on HRAS wild-type protein was “B (a compound having 3 or more and less than 10 is denoted as B)”. For the same molecule, the “NRAS /KRAS” value in assay [2] was “C (A compound having a KD ratio of 0.1 or more and less than 3 is denoted as C)”.

For the molecule `CCCN1C(=O)[C@@H]2CCN2C(=O)[C@H](C)N(C)C(=O)[C@H]([C@@H](C)CC)NC(=O)[C@H](CC(C)C)N(C)C(=O)C[C@@H](C(=O)N2CCOCC2)N(C)C(=O)[C@H](C2CCCC2)N(C)C(=O)C(C)(C)NC(=O)[C@@H]2CCCN2C(=O)[C@H](CCc2ccc(C(F)(F)F)c(Cl)c2)NC(=O)CN(C)C(=O)[C@@H]1Cc1ccc(C(F)(F)F)cc1` [PP0225] ([NMeL]I[NMeA][Aze][NPrPhe(4-CF3)][Sar][hPhe(3-Cl-4-CF3)]P[Aib][NMeGly(cPent)][NMeD]-Morpholide; lactam N-11), inhibition in assay [1] was half-maximal at 2.4 nM (IC50). Besides, the “HRAS /KRAS” value on HRAS wild-type protein was “C (A compound having a KD ratio of 0.1 or more and less than 3 is denoted as C)”. Further, the “NRAS /KRAS” value in assay [2] was “C (A compound having a KD ratio of 0.1 or more and less than 3 is denoted as C)”.

For the molecule `CCCN1C(=O)[C@@H]2CCN2C(=O)[C@H](C)N(C)C(=O)[C@H]([C@@H](C)CC)NC(=O)[C@H](CC(C)C)N(C)C(=O)C[C@@H](C(=O)N2CCOCC2)N(C)C(=O)[C@H](C2CCCC2)N(C)C(=O)C2(CCCCC2)NC(=O)[C@@H]2CCCN2C(=O)[C@H](CCc2ccc(C(F)(F)F)c(Cl)c2)NC(=O)CN(C)C(=O)[C@@H]1Cc1ccc(C(F)(F)F)cc1` [PP0226] ([NMeL]I[NMeA][Aze][NPrPhe(4-CF3)][Sar][hPhe(3-Cl-4-CF3)]P[Ac6c][NMeGly(cPent)][NMeD]-Morpholide; lactam N-11), it took 15.3 nM to reach half-maximal inhibition in assay [1] (IC50). Further, the “HRAS /KRAS” value at HRAS wild-type protein was “B (a compound having 3 or more and less than 10 is denoted as B)”. The “NRAS /KRAS” value in assay [2] was “C (A compound having a KD ratio of 0.1 or more and less than 3 is denoted as C)”.
